{"source": "patent US20160016951A1", "about": "(Merck Patent GmbH, priority 2014, published 2016)", "data": [{"molecular_target": "T1, CDK8 (CDK8/CycC) (Homo sapiens, UniProt P49336)", "T1 construct": "purchased Invitrogen PV4402", "T1 sequence (P49336 whole entry)": "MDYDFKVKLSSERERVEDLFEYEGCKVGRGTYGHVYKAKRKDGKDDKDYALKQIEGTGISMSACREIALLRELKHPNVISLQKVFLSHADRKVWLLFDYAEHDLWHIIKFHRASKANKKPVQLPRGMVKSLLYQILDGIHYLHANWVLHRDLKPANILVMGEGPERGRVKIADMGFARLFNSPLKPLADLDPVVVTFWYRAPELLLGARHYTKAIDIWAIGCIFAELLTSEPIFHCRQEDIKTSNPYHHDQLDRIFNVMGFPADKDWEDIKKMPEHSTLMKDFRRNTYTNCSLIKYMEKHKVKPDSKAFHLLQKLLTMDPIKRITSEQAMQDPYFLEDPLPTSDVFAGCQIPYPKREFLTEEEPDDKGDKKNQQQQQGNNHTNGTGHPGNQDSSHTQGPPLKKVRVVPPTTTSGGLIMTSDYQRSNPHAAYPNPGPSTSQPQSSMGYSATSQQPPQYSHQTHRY", "T1 sequence (P24863 whole entry partner)": "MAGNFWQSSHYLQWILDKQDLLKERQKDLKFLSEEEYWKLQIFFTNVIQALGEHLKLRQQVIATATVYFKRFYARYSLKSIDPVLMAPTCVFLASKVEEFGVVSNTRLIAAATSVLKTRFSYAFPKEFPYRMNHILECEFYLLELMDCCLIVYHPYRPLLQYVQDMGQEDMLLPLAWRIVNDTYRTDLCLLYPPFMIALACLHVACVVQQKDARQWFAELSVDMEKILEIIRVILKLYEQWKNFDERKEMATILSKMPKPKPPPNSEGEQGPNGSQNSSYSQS", "assay": "FRET based Lanthascreen binding competition assay", "settings": "not given", "experimental": "(§1) FRET based Lanthascreen binding competition assay: A dye-labeled ATP competitive probe served as a FRET acceptor upon binding to CDK8 labeled with a strepavidin —Eu-chelate (via abiotinylated anti His antibody). […] In case this probe was competed by an inhibitor as such a signal cannot be generated any more. The CDK8 used for this assay was a protein co-expressed with CycC.\n(§2) The assay procedure for an assay in a 1536 well plate was performed according to the following: 2 μL CDK8/biotin-anti-His Ab/SA-Eu mix in Assay buffer were pipetted into the wells of a micro plate.\n(§3) 1 μL compound in 20 mM Hepes buffer/5% DMSO was added. The plate was shaken for 30 sec and incubated for 20 min at RT. 2 μL Alexa647-probe in assay buffer were added. The plate was shaken for 30 sec again and incubated for 60 min at RT in the dark. Then the plate was read out on a Perkin Elmer Envision (mode LANCE/TRF, excitation 340 nm emission 650 nm).", "units": {"IC50": "nM"}, "values": [{"smiles": "COC1CN(C(=O)c2ccc3cncc(-c4ccc5nn(CC(C)(C)O)cc5c4)c3c2)C1", "note": "[Compound 133, (4-(2-(2-hydroxy-2-methylpropyl)-2H-indazol-5-yl)isoquinolin-6-yl)(3-methoxyazetidin-1-yl)methanone]", "IC50": "10 to 100"}]}, {"molecular_target": "T1, CDK8 (CDK8/CycC)", "assay": "FRET based Lanthascreen binding competition assay", "settings": "5 nM CDK8/CycC, 10 nM Alexa647-Tracer, 1% DMSO, 60 min at RT; read-out: IC50 CDK8 binding", "experimental": "as §1, §2, §3", "units": {"IC50": "nM"}, "values": [{"smiles": "CN1c2ccc(-c3cncc4ccc(N5CCCC5=O)cc34)cc2CS1(=O)=O", "note": "[Compound 129, 1-(4-(1-Methyl-2,2-dioxido-1,3-dihydrobenzo[c]isothiazol-5-yl)isoquinolin-6-yl)pyrrolidin-2-one]", "IC50": "10 to 100"}, {"smiles": "Cn1cc(-c2ccc(-c3cncc4ccc(C(=O)N5CCC(F)(F)C5)cc34)cc2)cn1", "note": "[Compound 195, (3,3-difluoropyrrolidin-1-yl)(4-(4-(1-methyl-1H-pyrazol-4-yl)phenyl)isoquinolin-6-yl)methanone]", "IC50": "10 to 100"}, {"smiles": "CC(C)(O)Cn1cc(-c2ccc(-c3cncc4ccc(N5C(=O)Cc6ccccc65)cc34)cc2)cn1", "note": "[Compound 150, 1-(4-(4-(1-(2-hydroxy-2-methylpropyl)-1H-pyrazol-4-yl)phenyl)isoquinolin-6-yl)indolin-2-one]", "IC50": "10 to 100"}, {"smiles": "O=C1Cc2ccc(-c3cncc4ccc(C(=O)N5CCC5)cc34)cc2N1", "note": "[Compound 145, 6-(6-(azetidine-1-carbonyl)isoquinolin-4-yl)indolin-2-one]", "IC50": "< 10"}, {"smiles": "Cn1cc(-c2ccc(-c3cncc4ccc(-c5nn[nH]n5)nc34)cc2)cn1", "note": "[Compound 42, 8-(4-(1-methyl-1H-pyrazol-4-yl)phenyl)-2-(2H-tetrazol-5-yl)-1,6-naphthyridine]", "IC50": "10 to 100"}, {"smiles": "Cn1cc(-c2ccc(-c3cncc4ccc(C(=O)N5CCC5)cc34)cc2)cn1", "note": "[Compound 181, azetidin-1-yl(4-(4-(1-methyl-1H-pyrazol-4-yl)phenyl)isoquinolin-6-yl)methanone]", "IC50": "< 10"}, {"smiles": "O=C(c1ccc2cnccc2n1)N1CCC[C@H]1c1ccc(Br)cc1", "note": "[Compound 84, (S)-(2-(4-bromophenyl)pyrrolidin-1-yl)(1,6-naphthyridin-2-yl)methanone]", "IC50": "10 to 100"}, {"smiles": "COC1CN(C(=O)c2ccc3cncc(-c4ccc(-c5ccn(C)n5)cc4)c3n2)C1", "note": "[Compound 156, (3-methoxyazetidin-1-yl)(8-(4-(1-methyl-1H-pyrazol-3-yl)phenyl)-1,6-naphthyridin-2-yl)methanone]", "IC50": "10 to 100"}, {"smiles": "COC1CN(C(=O)c2ccc3cncc(-c4ccc(-c5cnn(CC(C)(C)O)c5)cc4)c3n2)C1", "note": "[Compound 31, (8-(4-(1-(2-hydroxy-2-methylpropyl)-1H-pyrazol-4-yl)phenyl)-1,6-naphthyridin-2-yl)(3-methoxyazetidin-1-yl)methanone]", "IC50": "< 10"}, {"smiles": "COCC(=O)Nc1ccc2cncc(-c3ccc(-c4cnn(C)c4)cc3)c2c1", "note": "[Compound 121, 2-Methoxy-N-{4-[4-(1-methyl-1H-pyrazol-4-yl)-phenyl]-isoquinolin-6-yl}-acetamide]", "IC50": "10 to 100"}, {"smiles": "Cn1cc(-c2ccc(-c3cncc4ccc(N5CCNC(=O)C5)cc34)cc2)cn1", "note": "[Compound 116, 4-{4-[4-(1-Methyl-1H-pyrazol-4-yl)-phenyl]-isoquinolin-6-yl}-piperazin-2-one]", "IC50": "10 to 100"}, {"smiles": "CN1c2ccc(-c3cncc4ccccc34)cc2CS1(=O)=O", "note": "[Compound 100, 5-(isoquinolin-4-yl)-1-methyl-1,3-dihydrobenzo[c]isothiazole 2,2-dioxide]", "IC50": "< 10"}, {"smiles": "CN1c2ccc(-c3cncc4ccc(CN)nc34)cc2CS1(=O)=O", "note": "[Compound 71, C-[8-(1-Methyl-2,2-dioxo-2,3-dihydro-1H-benzo[c]isothiazol-5-yl)-[1,6]naphthyridin-2-yl]-methylamine]", "IC50": "101 to 500"}, {"smiles": "Cn1cc(-c2ccc(-c3cncc4ccc(C(=O)N5CCN(C(=O)OC(C)(C)C)CC5)cc34)cc2)cn1", "note": "[Compound 124, tert-butyl 4-(4-(4-(1-methyl-1H-pyrazol-4-yl)phenyl)isoquinoline-6-carbonyl)piperazine-1-carboxylate]", "IC50": "101 to 500"}, {"smiles": "Cc1ncc(-c2ccc(-c3cnn(C)c3)cc2)c2nc(C(N)=O)ccc12", "note": "[Compound 61, 5-Methyl-8-(4-(1-methyl-1H-pyrazol-4-yl)phenyl)-1,6-naphthyridine-2-carboxamide]", "IC50": "101 to 500"}, {"smiles": "Cn1cc(-c2ccc(-c3cncc4ccc(S)nc34)cc2)cn1", "note": "[Compound 77, 8-(4-(1-methyl-1H-pyrazol-4-yl)phenyl)-1,6-naphthyridine-2-thiol]", "IC50": "10 to 100"}, {"smiles": "Cn1cc(-c2ccc(-c3cncc4ccc(C(=O)N5CCNCC5)cc34)cc2)cn1", "note": "[Compound 102, (4-(4-(1-methyl-1H-pyrazol-4-yl)phenyl)isoquinolin-6-yl)(piperazin-1-yl)methanone]", "IC50": "< 10"}, {"smiles": "Cn1cc(-c2ccc(-c3cncc4ccc(NS(C)(=O)=O)nc34)cc2)cn1", "note": "[Compound 2, N-(8-(4-(1-Methyl-1H-pyrazol-4-yl)phenyl)-1,6-naphthyridin-2-yl)methanesulfonamide]", "IC50": "< 10"}, {"smiles": "Cc1ccc2cncc(-c3ccc4c(c3)CS(=O)(=O)N4C)c2n1", "note": "[Compound 65, 1-Methyl-5-(2-methyl-1,6-naphthyridin-8-yl)-1,3-dihydrobenzo[c]isothiazole 2,2-dioxide]", "IC50": "101 to 500"}, {"smiles": "Cn1cc(-c2ccc(-c3cncc4ccc(C(=O)NCc5ccc(C(F)(F)F)cc5)nc34)cc2)cn1", "note": "[Compound 87, 8-(4-(1-methyl-1H-pyrazol-4-yl)phenyl)-N-(4-(trifluoromethyl)benzyl)-1,6-naphthyridine-2-carboxamide]", "IC50": "10 to 100"}, {"smiles": "Cc1cncc2ccc(C(=O)N[C@H](C)c3ccccc3)nc12", "note": "[Compound 36, (R)-8-methyl-N-(1-phenylethyl)-1,6-naphthyridine-2-carboxamide]", "IC50": "< 10"}, {"smiles": "COC1CN(C(=O)c2ccc3cncc(-c4ccc5c(cnn5C)c4)c3n2)C1", "note": "[Compound 22, (3-methoxyazetidin-1-yl)(8-(1-methyl-1H-indazol-5-yl)-1,6-naphthyridin-2-yl)methanone]", "IC50": "< 10"}, {"smiles": "Cn1cc(-c2ccc(-c3cncc4ccccc34)cc2)cn1", "note": "[Compound 109, 4-(4-(1-methyl-1H-pyrazol-4-yl)phenyl)isoquinoline]", "IC50": "10 to 100"}, {"smiles": "Cn1cc(-c2ccc(-c3cncc4ccc(C(=O)N5CCC[C@H]5c5ccc(Cl)cc5)nc34)cc2)cn1", "note": "[Compound 67, (S)-(2-(4-chlorophenyl)pyrrolidin-1-yl)(8-(4-(1-methyl-1H-pyrazol-4-yl)phenyl)-1,6-naphthyridin-2-yl)methanone]", "IC50": "101 to 500"}, {"smiles": "COC1CN(C(=O)c2ccc3c(N)ncc(-c4ccc5c(c4)CCC(=O)N5C)c3c2)C1", "note": "[Compound 178, 6-(1-amino-6-(3-methoxyazetidine-1-carbonyl)isoquinolin-4-yl)-1-methyl-3,4-dihydroquinolin-2(1H)-one]", "IC50": "101 to 500"}, {"smiles": "CN(C)C(=O)c1ccc2cncc(-c3ccc4c(c3)CS(=O)(=O)N4)c2n1", "note": "[Compound 46, 8-(2,2-Dioxo-2,3-dihydro-1H-benzo[c]isothiazol-5-yl)-[1,6]naphthyridine-2-carboxylic acid dimethylamide]", "IC50": "10 to 100"}, {"smiles": "N#Cc1ccc2cncc(-c3ccc4c(c3)NC(=O)C4)c2c1", "note": "[Compound 148, 4-(2-oxoindolin-6-yl)isoquinoline-6-carbonitrile]", "IC50": "10 to 100"}, {"smiles": "CN1C(=O)Cc2cc(-c3cnc(N)c4ccc(C(=O)N5CC(F)(F)C5)cc34)ccc21", "note": "[Compound 171, 5-[1-Amino-6-(3,3-difluoro-azetidine-1-carbonyl)-isoquinolin-4-yl]-1-methyl-1,3-dihydro-indol-2-one]", "IC50": "10 to 100"}, {"smiles": "Cn1cc(-c2ccc(-c3cncc4ccc(N5CCCCC5=O)cc34)cc2)cn1", "note": "[Compound 127, 1-{4-[4-(1-Methyl-1H-pyrazol-4-yl)-phenyl]-isoquinolin-6-yl}-piperidin-2-one]", "IC50": "501 to 1000"}, {"smiles": "C[C@H](NC(=O)c1ccc2cncc(Br)c2n1)c1ccccc1", "note": "[Compound 70, (S)-8-bromo-N-(1-phenylethyl)-1,6-naphthyridine-2-carboxamide]", "IC50": "101 to 500"}, {"smiles": "Cn1cc(-c2ccc(-c3cncc4ccc(-c5nnn(C)n5)cc34)cc2)cn1", "note": "[Compound 117, 4-(4-(1-methyl-1H-pyrazol-4-yl)phenyl)-6-(2-methyl-2H-tetrazol-5-yl)isoquinoline]", "IC50": "10 to 100"}, {"smiles": "COC1CN(C(=O)c2ccc3c(N)ncc(-c4ccc5c(c4)N(C)C(=O)C5)c3c2)C1", "note": "[Compound 173, 6-[1-Amino-6-(3-methoxy-azetidine-1-carbonyl)-isoquinolin-4-yl]-1-methyl-1,3-dihydro-indol-2-one]", "IC50": "10 to 100"}, {"smiles": "CN1c2ccc(-c3cnc(N)c4ccc(CO)nc34)cc2CS1(=O)=O", "note": "[Compound 58, [5-Amino-8-(1-methyl-2,2-dioxo-2,3-dihydro-1H-benzo[c]isothiazol-5-yl)-[1,6]naphthyridin-2-yl]-methanol]", "IC50": "101 to 500"}, {"smiles": "Cn1cc(-c2ccc(-c3cncc4ccc(-c5nnnn5C)cc34)cc2)cn1", "note": "[Compound 123, 4-(4-(1-methyl-1H-pyrazol-4-yl)phenyl)-6-(1-methyl-1H-tetrazol-5-yl)isoquinoline]", "IC50": "10 to 100"}, {"smiles": "CC(=O)NC(=O)c1ccc2cncc(-c3ccc(-c4cnn(C)c4)cc3)c2n1", "note": "[Compound 9, 8-[4-(1-Methyl-1H-pyrazol-4-yl)-phenyl]-[1,6]naphthyridine-2-carboxylic acid acetyl-amide]", "IC50": "< 10"}, {"smiles": "Cc1cncc2ccc(C(=O)N3CCC[C@H]3c3ccc(Br)cc3)nc12", "note": "[Compound 92, (S)-(2-(4-bromophenyl)pyrrolidin-1-yl)(8-methyl-1,6-naphthyridin-2-yl)methanone]", "IC50": "< 10"}, {"smiles": "Cc1cc(C(N)=O)nc2c(-c3ccc(-c4cnn(C)c4)cc3)cncc12", "note": "[Compound 64, 4-Methyl-8-(4-(1-methyl-1H-pyrazol-4-yl)phenyl)-1,6-naphthyridine-2-carboxamide]", "IC50": "101 to 500"}]}]}
